Measured values reported in PubChem BioAssay (NCI).
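Values below derive from 48-hour exposures of cells grown in 96-well plates, with endpoints linearly interpolated between the two concentrations bracketing the appropriate inhibition level. TGI denotes the concentration required for complete inhibition of growth.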

Assays:
Experiment in all cases: growth of human tumour cells (NCI), 48 h
[1] = tested on: OVCAR-8 ovarian
[2] = tested on: DU-145 prostate
[3] = tested on: RXF 393 renal
[4] = tested on: CAKI-1 renal
[5] = tested on: SK-MEL-2 melanoma
[6] = tested on: SW-620 colon
[7] = tested on: PC-3 prostate
[8] = tested on: NCI-H226 lung
[9] = tested on: OVCAR-5 ovarian
[10] = tested on: SK-MEL-5 melanoma
[11] = tested on: EKVX NSCLC
[12] = tested on: ACHN renal
[13] = tested on: SF-295 CNS
[14] = tested on: RPMI-8226 leukemia

Structure (SMILES)	TGI [1]	TGI [2]	TGI [3]	TGI [4]	TGI [5]	TGI [6]	TGI [7]	TGI [8]	TGI [9]	TGI [10]	TGI [11]	TGI [12]	TGI [13]	TGI [14]
N#Cc1c(-c2cccc(Br)c2)cc(-c2ccc(Cl)cc2)nc1N	> 100 µM	> 100 µM	34.6 µM	79.1 µM	31.5 µM	36 µM	71.3 µM	38.1 µM	65.2 µM	30.7 µM	56.7 µM	51.8 µM	35.5 µM	45.7 µM
Cc1cc2c(c(C=Nc3ccc(N(C)C)cc3)c1)OC1(C=C2)Oc2ccccc2C(=O)N1C (stereo unspecified)	42.9 µM	27.9 µM	> 58 µM	28 µM	> 54.8 µM	35.6 µM	> 52.5 µM	70.2 µM	32.4 µM	27.6 µM	27.1 µM	25.5 µM	46.5 µM	31.1 µM
CNc1nc2c(C)ccc3nc(N(C)C)nc-3c2n1C	> 10 µM	> 10 µM	> 10 µM	> 10 µM	> 10 µM	> 10 µM	> 10 µM	> 10 µM	> 10 µM	> 10 µM	> 10 µM	> 10 µM	> 10 µM	> 10 µM
Cc1ccc([N+](=O)[O-])cc1S(=O)(=O)Nc1ccc(C2=NOC(c3ccccc3)C2)cc1 (stereo unspecified)	> 100 µM	33.9 µM	9.44 µM	32.7 µM	21.3 µM	59.1 µM	> 100 µM	> 100 µM	> 100 µM	20.1 µM	69.1 µM	50.4 µM	19.7 µM	34.6 µM
O=S(=O)(O)c1cccc2ccc(O)c(N=Nc3ccc(S(=O)(=O)c4ccc(N=Nc5c(O)ccc6cccc(S(=O)(=O)O)c56)cc4)cc3)c12	> 100 µM	> 100 µM	> 100 µM	> 100 µM	> 100 µM	> 100 µM	> 100 µM	> 100 µM	> 100 µM	> 100 µM	> 100 µM	> 100 µM	> 100 µM	> 100 µM
O=c1oc2ccccc2cc1-c1nc2ccccc2c(=O)[nH]1	> 100 µM	> 100 µM	> 100 µM	> 100 µM	> 100 µM	> 100 µM	> 100 µM	> 100 µM	> 100 µM	> 100 µM	> 100 µM	> 100 µM	> 100 µM	> 100 µM
COC(=O)/C=C/COCC1C2CCC(=O)C21 (stereo unspecified)	> 100 µM	> 100 µM	> 100 µM	51.5 µM	> 100 µM	> 100 µM	> 100 µM	> 100 µM	> 100 µM	> 100 µM	> 100 µM	> 100 µM	> 100 µM	> 100 µM
COC(=O)C1=C(O)C(C(=O)OC)[C@]2(O)[C@H](C(=O)OC)[C@H]1C[C@@H](c1ccc(Cl)cc1Cl)[C@H]2C(=O)OC (stereo partly specified)	18 µM	25.7 µM	33.7 µM	> 100 µM	20.3 µM	57 µM	23.5 µM	16.3 µM	40.7 µM	16.8 µM	> 100 µM	42.4 µM	31.6 µM	7.74 µM
COc1ccc2c(c1)nc1n2C(c2c(F)cccc2F)SC1 (stereo unspecified)	> 100 µM	> 100 µM	> 100 µM	> 100 µM	96.7 µM	> 100 µM	> 100 µM	> 100 µM	> 100 µM	56.4 µM	> 100 µM	> 100 µM	> 100 µM	> 100 µM
